These are literature values, as cited in US20250288584A1, “COMBINATIONS COMPRISING POSITIVE ALLOSTERIC MODULATORS OR ORTHOSTERIC AGONISTS OF METABOTROPIC GLUTAMATERGIC RECEPTOR SUBTYPE 2 AND THEIR USE” (JANSSEN PHARMACEUTICA NV, priority 2014, published 2025).

The subject of the data set is MES seizures. The conditions noted are these: in vivo; cited from earlier work.

Take `CC[C@@H](C(N)=O)N1CCCC1=O` [LEV, (S)-2-(2-oxopyrrolidin-1-yl) butanamide, reference compound]: the “activity in maximal electroshock (MES) seizure test” value was “no activity”.
